Data as given in patent US10759796B2, “CXCR4 inhibitors and uses thereof” (X4 Pharmaceuticals, Inc., priority 2016, dated 2020).
Read-outs that look alike come from different tables or passages of the source.

Assays:
[1] = Rat pharmacokinetics and brain penetration (IV and PO); assay type: in vivo; details: male, SD, 3 mg/kg IV, 10 mg/kg PO; for Kp / Kp uu: brain and plasma; for Kp / Kp uu / clearance / bioavailability / half-life: Rat; for Kp: read-out: Kp (brain/plasma drug concentration ratio); for Kp uu: read-out: Kp, uu (unbound brain/unbound plasma drug concentration ratio); for clearance / bioavailability / half-life: plasma; for bioavailability: read-out: F % (oral bioavailability); for half-life: read-out: t½ (converted)
Procedure: Example 29: Pharmacokinetics and Brain Penetration Experiment to Determine Brain and Plasma Concentrations of Compounds After IV Administration to Male CD1 Mice or Male SD Rat
The study design consisted of 2 groups (24 animals and 18 animals) and administrating the drug [IV: 3 mg/kg (1.5 mL/kg) via foot dorsal vein], [PO: 10 mg/kg (5 mL/kg) via oral gavage] and collecting samples at terminal bleeding for plasma, brain and CSF at 0.25, 0.5, 1, 4, 8 and 24 hr. The IV and PO dosing solutions were prepared in 50 mM citrate buffer (pH 4.0) at 2 mg/mL. The blood collection was performed as follows: the animal was restrained manually at the designated time points, approximately 150 μL of blood sample was collected via cardiac puncture vein into EDTA-2K tubes. The blood samples were maintained in wet ice first and centrifuged to obtain plasma (2000 g, 4° C., 5 min) within 15 minutes post sampling. The brain collection was performed as follows: a mid-line incision was made in the animal's scalp and the skin was retracted. Using small bone cutters and rongeurs, the skull overlying the brain was removed. The brain was removed using a spatula and rinsed with cold saline. The brain was placed in screw-top tubes and then stored under −70° C. until analysis. The CSF collection was performed as follows: the animal was euthanized under deep anesthesia with air bubble tail vein injection. The CSF was collected by direct puncture of butterfly needle into the cisterna magna, using the occipital bone and the wings of the atlas as landmarks. A piece of white paper was used as a background to monitor color change in the sample just above the needle during collection. Upon observation of color change, the PE tubing was quickly clamped off above the color change and cut just above the clamped site. The clear sample was drawn into the syringe.
(§1) Plasma Samples Preparation:
(§2) An aliquot of 30 μL sample was added with 100 MeCN containing 100 ng/mL IS (Dexamethasone). The mixture was vortexed for 10 min and centrifuged at 5800 rpm for 10 min. An aliquot of 40 μL supernatant was added with 40 μl H2O and the mixture was vortexed for 5 min. An aliquot of 2 μL supernatant was injected for LC-MS/MS analysis.
Brain Samples Preparation:
The sample was homogenized with 3 volumes (v/w) of PBS. An aliquot of 30 μL sample was added with 100 μL ACN containing 100 ng/mL IS (Dexamethasone). The mixture was vortexed for 10 min and centrifuged at 5800 rpm for 10 min. An aliquot of 40 μL supernatant was added with 40 μl H2O and the mixture was vortexed for 5 min. An aliquot of 2 μL supernatant was injected for LC-MS/MS analysis.
An aliquot of 10 μL sample was added with 10 μLMeOH/H2O (1/1) and […], ACN containing 200 ng/mL IS (Dexamethasone) 120 μL H2O. The mixture was vortexed for 5 min. An aliquot of 2 μL supernatant was injected for LC-MS/MS analysis.
(§3) The sample analysis was performed on UPLC-MS/MS-02 (Triple Quad 4000) under the following conditions: positive ion, ESI, MRM detection using dexamethasone as internal standard. HPLC conditions: mobile phase A: H2O-0.1% FA, mobile phase B: MeCN-0.1% FA on ACQUITY UPLC HSS T3 (2.1×50 mm, 1.8 μm) column at 60° C.

[2] = Fraction of drug unbound to plasma proteins, rat; assay type: in vitro ADME; details: read-out: Fu (p)
[3] = Fraction of drug unbound to brain proteins, rat; assay type: in vitro ADME; details: read-out: Fu (b)
[4] = Pharmacokinetics after intravenous or oral administration to dogs; assay type: in vivo; details: male, beagle, plasma, dog
Procedure: Example 32: Pharmacokinetics of Compounds After Intravenous or Oral Administration to Male Beagle Dogs
The study design (9 animals, fasted overnight and fed at 4 h post dosing) consists of administrating the drug [IV: 1 mg/kg via cephalic vein injection], [PO: 3 mg/kg and 10 mg/kg via oral gavage] and collecting samples at serial bleeding for plasma at 0.03, 0.08, 0.25, 0.5, 1, 2, 4, 8, 24, 48 and 72 hr. The IV and PO dosing solutions were prepared in 50 mM citrate buffer (pH 4.0) at 0.5 mg/mL, 1.5 mg/mL and 5 mg/mL, respectively. The blood collection was performed as follows: the animals were restrained manually, and approx. 0.5 mL blood/time point was collected from the cephalic vein into pre-cooled K2EDTA tubes. Blood samples were put on wet ice and centrifuged at 4° C. to obtain plasma within 15 minutes of sample collection. All samples were stored at approximately −70° C. until analysis.
as §1
as §2, with “added to” for “added with”, “containing 200” for “containing 100”, “at 5,800” for “at 5800”, “of 30” for “of 40”, “added to 60 μL” for “added with 40 μl”, “of 4” for “of 2”
as §3, with “performed using” for “performed on”, “B: ACN-0.1%” for “B: MeCN-0.1%”

brain proteins = test: Fraction of drug unbound to brain proteins, mouse; assay type: in vitro ADME
plasma proteins = test: Fraction of drug unbound to plasma proteins, mouse; assay type: in vitro ADME; details: Mouse plasma proteins (Table 10)
[5] = Rat brain, read-out: AUClast (b)
[6] = Rat plasma, read-out: AUClast (p)

Fu (p) % (plasma proteins) | SMILES | Kp [1] | Kp uu [1] | clearance [1] | bioavailability [1] | half-life [1] | AUC(0-t) [1, 5] | AUC(0-t) [1, 6] | fraction unbound [2] | fraction unbound [3] | other results
 | CN1CCN(c2cccc3nc([C@H]4CCC[C@@H](c5ncccc5Cl)N4)cn23)CC1 (racemic) [Compound I-149] | 8.4 | 1.6 | 127 mL/min/kg | 37.9% | 6.7 h | 3820 ng·h/mL | 457 ng·h/mL | 0.2 | 0.038 | 
 | CN1CCN(c2cccc3nc([C@H]4CCC[C@@H](c5ncccc5Cl)N4)cn23)CC1 (single isomer, unassigned) [Compound I-188] | 5.65 | 1.04 | 74.3 mL/min/kg | 36.9% | 6.87 h | 4470 ng·h/mL | 791 ng·h/mL | 0.308 | 0.057 | clearance ([4]; IV: 1 mg/kg): 19.8 mL/min/kg; half-life ([4]; IV: 1 mg/kg): 27.3 h; Vd ([4]; IV: 1 mg/kg, read-out: Vss): 39 L/kg; Cmax ([4]; PO: 3 mg/kg): 46.1 ng/mL; bioavailability ([4]; PO: 3 mg/kg): 65%; half-life ([4]; PO: 3 mg/kg): 27.3 h; Cmax ([4]; PO: 10 mg/kg): 280 ng/mL; bioavailability ([4]; PO: 10 mg/kg): 97.8%; half-life ([4]; PO: 10 mg/kg): 23.2 h; AUC ([4]; IV: 1 mg/kg): 722 ng·h/mL; AUC ([4]; PO: 3 mg/kg): 1420 ng·h/mL; AUC ([4]; PO: 10 mg/kg): 7500 ng·h/mL; Fu (b) (brain proteins; Mouse brain proteins (Table 13)): 5.4%
 | CN1CCN(c2cccc3nc([C@@H]4CCC[C@H](c5ncccc5Cl)N4)cn23)CC1 (single isomer, unassigned) [Compound I-189] | 4.03 | 0.99 | 68.8 mL/min/kg | 25.4% | 8.14 h | 2300 ng·h/mL | 570 ng·h/mL | 0.248 | 0.061 | 
5.3% | Cc1cccnc1[C@@H]1CCC[C@H](c2nc3cccc(N4CCN(C)CC4)n3c2Cl)N1 [Compound I-146] | 1.82 | 0.18 | 24.3 mL/min/kg | 70.1% | 7.89 h | 7800 ng·h/mL | 4280 ng·h/mL | 0.07 | 0.007 | 
24.9% | Cc1cccnc1[C@@H]1CCC[C@H](c2cn3c(N4CCN(C)CC4)cccc3n2)N1 [Compound I-187] |  |  |  |  |  |  |  |  |  | Fu (b) % (brain proteins; Mouse brain proteins (Table 10)): 7.1%
